Entries after “also recorded” stand apart in the source; their conditions may differ.
Tests used:
[1] = tested on: FGF receptor on BHK cells; test: Competition for 125I-FGF-2 binding to baby hamster kidney (BHK) cells; details: 50 pM 125I-FGF-2; compared with FGF-2
Protocol: FGF-2LI and FGF-2LA are tested for their capacity to compete for the binding of ^125 I-FGF-2 (Amersham Corp.) to baby hamster kidney (BHK) cells, which express high numbers of FGF receptor. The assay employed is described by Moscatelli (J. Cell. Physiol. 131: 123-130 (1987)). Briefly stated, BHK cells plated on 24-well plates are incubated with 50 pM ^125 I-FGF-2 with serial dilutions of unlabelled FGF-2, FGF-2LI or FGF-2LA loop mutants at room temperature for 1 hour or at 4° C. for 2 hours. The cells are then incubated at 4° C. for 30 minutes, washed twice with phosphate-buffered saline and treated with 20 mM HEPES (N-2-hydroxyethyl-piperazine-N'-2-ethanesulfonic acid), pH 7.5, containing 2M NaCl to remove ^125 I-FGF-2 bound to low affinity heparin sulfate binding sites. Receptor bound ^125 I-FGF-2 is recovered by treatment of the cells with 0.5% Triton X-100 in 0.1M sodium phosphate, pH 8, and counted in a γ-counter. Assays are conducted in duplicate.

[2] = tested on: soluble FGF receptor 1 (FGFR-1; flg); test: Competition binding to soluble FGFR1 (displacement of 125I-FGF-2); design: species or system murine; details: 200 ng/ml heparin
Protocol: (§1) Binding of FGF proteins to different FGF receptors are determined in this example, by measuring the degree of competition for binding to different types of FGF-receptor proteins between a radioiodinated FGF protein and various unlabelled proteins, or by the direct binding of radioiodinated FGF's to various receptor proteins. Binding studies are confirmed by chemical cross-linking of the radioiodinated FGF to soluble receptors in the presence and absence of excess unlabelled FGF.
(§2) Soluble FGF receptor proteins are constructed by cloning of the extracellular region of murine FGF receptor 1 (FGFR-1; flg), FGF receptor 2 (FGFR-2; bek) or the KGF receptor (FGFR(IIIb); K-sam) into the alkaline phosphatase-tag expression vector, which encodes for a secreted form of placental alkaline phosphatase (AP). The FGF receptor alkaline phosphatase (FRAP) plasmids are cotransfected into NIH 3T3 cells by electroporation with a selectable neomycin resistance gene. Clonies are selected in G418 (600 μg/ml) and screened for secreted AP enzyme activity in the conditioned medium. Clones of each receptor which produced a high level of AP activity (2 to 4 A405 units/min/ml) are then used to produce conditioned medium for binding assays.
(§3) Components of the soluble receptor binding reaction mixture include FRAP-conditioned medium (0.24 OD units/min), 2 ng/ml^125 I-FGFs and 200 ng/ml heparin. The FGF:heparin:FRAP terniary complex is immunoprecipitated with 20 μl of a 1:1 slurry of anti-AP monoclonal antibodies coupled to protein A Sepharose®. All components are mixed at room temperature. The total volume is adjusted to 200 μl by addition of DMEM containing 0.1% bovine serum albumin. Binding is allowed to proceed for 1 to 2 hours at 24° C., after which time bound receptor complex or the ligand is recovered by centrifugation at 4° C. (10 s at 2,000×g). The pelleted material is washed twice with 500 μl of an ice cold buffer containing HEPES (20 mM), NaCl (150 mM), glycerol (10%) and Triton® X-100 (1%). ^125 I-FGF binding is quantitated by counting of the samples in a gamma counter (LKB). Alternatively, AP enzyme activity of the FRAP protein is determined by transferring the FRAP receptor bound to […] to a flat-bottom microtiter plate in a volume of 50 μl of PBS. The reaction is initiated by addition of substrate (50 μl of 2× solution of AP assay buffer containing 2M diethanoiamine, 1 mM MgCl2, 20 mM homoarginine and 12 mM p-nitrophenyl phosphate). The reaction is followed at room temperature at 405 nm in a kinetic microplate reader.

[3] = tested on: FGFR2(IIIb) (FGF-7 or KGF receptor); test: Competition binding to soluble FGFR2(IIIb) (displacement of 125I-FGF-7); design: species or system murine; details: 200 ng/ml heparin
Protocol: as §1, §2, §3

FGFR1 = test: Chemical cross-linking of 125I-FGF to soluble FGFR1; assay type: binding, murine; details: with and without excess unlabelled FGF
Protocol: as §1, §2
(§4) Chemical cross-linking experiments are carried out at room temperature in a volume of 20 μl in siliconized 0.5-ml microcentrifuge tubes. The reaction mixtures contain FGF receptor immobilized to anti-AP monoclonal antibodies coupled to protein A Sepharose®, 200 ng/ml heparin, 2 ng/ml^125 I-bFGF, 20 mM phosphate buffer (pH 7.4), and 140 mM NaCl. After a 90 minute incubation, […] of a solution of disuccinimidyl suberate (Pierce) dissolved in dimethyl sulfoxide is added to give a final concentration of 0.15 mM, and the mixture incubated for an additional 30 minutes. The reaction is quenched by addition of […] of 200 mM ethanolamine-HCl (pH 8.0) for 30 min. The reaction mixtures are diluted 1:1 with 2× SDS-polyacrylamide gel electrophoresis loading buffer and electrophoresed on an SDS-12% polyacrylamide gel. Cross-linked FGF to the FGF receptor are detected by autoradiography on Kodak XAR film.

FGFR2(IIIb) = test: Chemical cross-linking of 125I-FGF to soluble FGFR2(IIIb); assay type: binding, murine; details: with and without excess unlabelled FGF
Protocol: as §1, §2, §4

[4] = Affinity for immobilized heparin (NaCl elution from heparin column); assay type: binding
Protocol: Cells from 1 liter cultures are harvested by centrifugation, resuspended in 30 ml of 50 mM Tris-HCl, pH 7.5 containing 0.1 mM EDTA and 0.6M NaCl, and disrupted by treatment with lysozyme (10 μg/ml) for 20 min at 4° C. followed by sonication (6×30 sec pulses). The lysates are clarified by centrifugation (10,000×g; 20 min) and the supernatant solutions incubated with 5 ml of hydrated heparin Sepharose (Pharmacia/LKB) at 4° C. for 1 hour with constant rotation. The resin is isolated by filtration on 0.8 μm filter apparatus (Nalgene), washed extensively with 10 mM Tris-HCl pH 7.4 containing 0.6M NaCl and bound protein eluted with Tris buffer containing 3M NaCl (25 ml). The 3M NaCl eluent is diluted 6-fold with Tris buffer and loaded onto a TSK heparin 5PW column (0.21×15 cm; The Nest Group, MA) and the column developed using a linear NaCl gradient (0.6 to 2M) in 90 min at a flow rate of […].
NaCl elution from heparin-Sepharose® is about 0.7M NaCl, compared with 1.4M NaCl for the wild-type protein. The molarity of NaCl required to elute the LK mutant is similar to that required to elute FGF-7.

neovascularization = test: In vivo angiogenesis, rabbit ear chamber model
Protocol: In an in vivo model of angiogenesis, FGF-2LI is evaluated using the rabbit ear chamber system modified and improved by Howden, G. F., and Silver, I. A., (Int. Endodontic J. 13: 3-16 (1980)), observing the growth factor-induced neovascularization, or its inhibition, by modified growth factors or other reagents.
Rabbits are sedated using 50-70 mg/kg ketamine and 10 mg/kg xylozine administered intramuscularly. The ears are shaved with an electric hair clipper and cleaned with water, followed by Betadine®. To minimize the risk of infection, the rabbits are given 20,000 units/kg benzathine penicillin intramuscularly prior to insertion of the ear chambers. The chamber is inserted into an approximately 0.75 cm area which is not crossed by any major vessels. During the course of the experiments, observations or any minor handling of ear chambers of the animals is done by sedating the animal using the intramuscular administration of a combination of Butorphanol® and acepromazine at levels of 1 mg/kg each. FGF-2 or FGF-2LI bound to heparin-Sepharose® beads in a controlled-release alginate capsule is contained in one of the ear chambers and the other is used as a control containing only the heparin-Sepharose® alginate capsule vehicle. Thus, the effect of the growth factors and the controlled-release capsule alone can be observed simultaneously in the same animal. […] The animals are kept for 4 to 6 weeks and neovascularization is observed visually and recorded photographically at weekly intervals.
The criteria for evaluation of the degree of neovascularization using this procedure is set out below.

Binding to soluble FGFR1 (competition with 125I-FGF-2) [2]	Binding to soluble FGFR2(IIIb) (competition with 125I-FGF-7) [3]	Substance	Capacity to compete with 125I-FGF-2 binding to FGF receptors on BHK cells [1]	Cross-linking to FGFR1 (FGFR1)	Cross-linking to FGFR2(IIIb) (FGFR2(IIIb))	NaCl concentration at elution from TSK-heparin column ([4]; TSK-heparin column)	NaCl elution from heparin-Sepharose ([4]; heparin-Sepharose) [M]	Angiogenesis at 400 ng/chamber (neovascularization; 400 ng/chamber)	Concentration range over which stimulatory activity is observed (neovascularization; rabbit ear chamber)	Potential to induce angiogenesis (neovascularization) (neovascularization; rabbit ear chamber, controlled-release alginate capsule)	Vessel formation in the chamber (neovascularization; rabbit ear chamber, versus control chambers)
		hrIL-1β: human recombinant interleukin-1β (Biogen) [reference compound]	no binding								
bind equally well	bind with the same affinity	FGF-1: acidic fibroblast growth factor	affinity equal to that of FGF-2	bind	bind						
no binding	bind with the same affinity	FGF-7: fibroblast growth factor-7, also known as keratinocyte growth factor or KGF (NHYNTYASAKWTHNGGEMFVALNQK)		not detected	bind						

Substance	Binding to soluble FGFR1 (competition with 125I-FGF-2) [2]	Binding to soluble FGFR2(IIIb) (competition with 125I-FGF-7) [3]	Capacity to compete with 125I-FGF-2 binding to FGF receptors on BHK cells [1]	Cross-linking to FGFR1 (FGFR1)	Cross-linking to FGFR2(IIIb) (FGFR2(IIIb))	NaCl concentration at elution from TSK-heparin column ([4]; TSK-heparin column)	NaCl elution from heparin-Sepharose ([4]; heparin-Sepharose) [M]	Angiogenesis at 400 ng/chamber (neovascularization; 400 ng/chamber)	Concentration range over which stimulatory activity is observed (neovascularization; rabbit ear chamber)	Potential to induce angiogenesis (neovascularization) (neovascularization; rabbit ear chamber, controlled-release alginate capsule)	Vessel formation in the chamber (neovascularization; rabbit ear chamber, versus control chambers)
FGF-2: basic fibroblast growth factor, wild-type factor used as comparator (NNYNTYRSRKYTSWYVALKRT) [reference compound]	bind equally well	do not bind; also recorded: does not compete		bind	excluded from binding	about 1.5 M	1.4	completely inhibited	10-100 ng/chamber	dose-dependent induction of new blood vessels	stimulate large vessel formation

Reference: patent US5491220A, “Surface loop structural analogues of fibroblast growth factors” (Yeda Research and Development Co., Ltd., priority 1994, dated 1996)
